According to ChEMBL document CHEMBL3988442, “University of Dundee, Small-Polar-MMV Screening Library” (2021):
Values joined by “and” are separate entries in the source; they are usually repeats but may differ in a detail not shown here. Equal entries are not always repeated.

Assays:
Type in all cases: functional
[1] = molecular target: T1, Histidine--tRNA ligase (Leishmania infantum, UniProt A4I591); experiment: Leishmania infantum Histidine tRNA synthetase (LdHisRS)
T1 sequence (A4I591 whole entry): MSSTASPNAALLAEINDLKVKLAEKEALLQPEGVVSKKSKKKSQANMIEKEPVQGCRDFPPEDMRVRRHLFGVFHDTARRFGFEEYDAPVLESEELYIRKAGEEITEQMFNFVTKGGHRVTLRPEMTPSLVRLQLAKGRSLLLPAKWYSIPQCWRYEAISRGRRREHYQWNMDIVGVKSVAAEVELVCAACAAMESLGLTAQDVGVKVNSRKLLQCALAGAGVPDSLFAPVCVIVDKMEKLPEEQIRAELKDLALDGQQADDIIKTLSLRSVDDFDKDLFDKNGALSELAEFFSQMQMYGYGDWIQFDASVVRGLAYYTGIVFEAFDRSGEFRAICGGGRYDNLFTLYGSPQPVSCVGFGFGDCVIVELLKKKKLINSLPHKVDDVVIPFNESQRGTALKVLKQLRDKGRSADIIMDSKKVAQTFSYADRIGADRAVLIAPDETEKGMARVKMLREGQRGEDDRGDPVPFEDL

[2] = molecular target: Lysine--tRNA ligase (Plasmodium falciparum (isolate 3D7), UniProt Q8IDJ8); experiment: Pf-KRS-1 (Lysyl-RNA Synthetase-1, KRS-1, cytosolic KRS) from Plasmodium falciparum. Inhibitor assay, 384 well plate, luminescence read.
Lysine--tRNA ligase, sequence (Q8IDJ8 whole entry): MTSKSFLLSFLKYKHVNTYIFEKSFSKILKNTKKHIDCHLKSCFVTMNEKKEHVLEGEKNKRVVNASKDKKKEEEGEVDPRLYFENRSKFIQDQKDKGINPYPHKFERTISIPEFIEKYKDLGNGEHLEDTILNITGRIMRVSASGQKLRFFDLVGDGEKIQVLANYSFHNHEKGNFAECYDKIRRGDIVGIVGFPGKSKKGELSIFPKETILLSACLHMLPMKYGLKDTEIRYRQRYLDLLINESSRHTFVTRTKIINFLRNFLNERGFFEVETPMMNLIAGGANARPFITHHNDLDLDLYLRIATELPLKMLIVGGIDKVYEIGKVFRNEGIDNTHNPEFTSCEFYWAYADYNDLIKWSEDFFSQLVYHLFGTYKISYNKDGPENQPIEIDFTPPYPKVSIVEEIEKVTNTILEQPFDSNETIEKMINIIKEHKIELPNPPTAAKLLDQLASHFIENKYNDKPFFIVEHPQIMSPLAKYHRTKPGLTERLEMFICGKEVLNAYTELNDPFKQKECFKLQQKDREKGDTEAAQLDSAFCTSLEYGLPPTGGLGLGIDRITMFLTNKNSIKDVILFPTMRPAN

[3] = molecular target: Protein translocase subunit SecA (Escherichia coli (strain K12), UniProt P10408); experiment: Assay to Identify E. coli SecA ATPase Inhibitors
Protein translocase subunit SecA, sequence (P10408 whole entry): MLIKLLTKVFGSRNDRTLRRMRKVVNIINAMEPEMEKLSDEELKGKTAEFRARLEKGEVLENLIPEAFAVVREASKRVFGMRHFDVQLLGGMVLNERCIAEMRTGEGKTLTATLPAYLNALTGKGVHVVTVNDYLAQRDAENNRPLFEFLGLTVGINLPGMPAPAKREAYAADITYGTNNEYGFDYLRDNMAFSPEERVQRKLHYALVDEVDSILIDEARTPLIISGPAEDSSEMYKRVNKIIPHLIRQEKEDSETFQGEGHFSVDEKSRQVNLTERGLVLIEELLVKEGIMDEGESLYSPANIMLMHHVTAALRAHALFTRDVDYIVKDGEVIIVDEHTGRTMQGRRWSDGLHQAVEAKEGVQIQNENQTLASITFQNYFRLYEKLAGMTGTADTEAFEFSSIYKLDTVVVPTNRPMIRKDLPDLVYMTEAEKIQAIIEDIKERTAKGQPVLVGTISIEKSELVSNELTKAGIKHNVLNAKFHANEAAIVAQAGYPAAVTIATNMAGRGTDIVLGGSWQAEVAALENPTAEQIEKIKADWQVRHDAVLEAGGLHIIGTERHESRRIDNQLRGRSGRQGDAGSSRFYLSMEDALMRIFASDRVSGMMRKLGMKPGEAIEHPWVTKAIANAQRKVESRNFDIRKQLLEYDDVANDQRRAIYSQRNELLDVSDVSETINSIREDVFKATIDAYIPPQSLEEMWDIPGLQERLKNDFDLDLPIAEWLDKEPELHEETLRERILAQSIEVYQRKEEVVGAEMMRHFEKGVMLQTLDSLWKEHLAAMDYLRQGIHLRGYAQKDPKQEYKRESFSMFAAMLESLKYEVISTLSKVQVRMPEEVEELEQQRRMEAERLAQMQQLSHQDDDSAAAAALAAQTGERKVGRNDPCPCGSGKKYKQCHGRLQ

[4] = molecular target: T2, Histidine--tRNA ligase (Trypanosoma cruzi (strain CL Brener), UniProt Q4DA54); experiment: Trypanosoma cruzi histidyl tRNA synthetase (Tc-HisRS)
T2 sequence (Q4DA54 whole entry): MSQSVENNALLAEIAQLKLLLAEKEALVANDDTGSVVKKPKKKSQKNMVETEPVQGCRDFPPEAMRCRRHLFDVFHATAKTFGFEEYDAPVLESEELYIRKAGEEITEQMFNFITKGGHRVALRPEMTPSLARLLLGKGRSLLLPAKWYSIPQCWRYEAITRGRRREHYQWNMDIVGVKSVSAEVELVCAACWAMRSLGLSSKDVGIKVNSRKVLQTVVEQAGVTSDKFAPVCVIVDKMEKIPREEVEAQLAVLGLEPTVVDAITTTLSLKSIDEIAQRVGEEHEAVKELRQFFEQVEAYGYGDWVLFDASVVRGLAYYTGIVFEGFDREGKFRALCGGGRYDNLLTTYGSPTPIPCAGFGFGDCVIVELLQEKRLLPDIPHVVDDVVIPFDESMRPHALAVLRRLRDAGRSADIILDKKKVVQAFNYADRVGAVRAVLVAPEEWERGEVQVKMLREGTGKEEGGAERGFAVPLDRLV

[5] = molecular target: T3, Ubiquitin-activating enzyme e1, putative (Leishmania donovani (strain BPK282A1), UniProt E9BSI1); experiment: Leishmania donovani Ubiquitin Activating Enzyme (LdE1)
T3 sequence (E9BSI1 whole entry): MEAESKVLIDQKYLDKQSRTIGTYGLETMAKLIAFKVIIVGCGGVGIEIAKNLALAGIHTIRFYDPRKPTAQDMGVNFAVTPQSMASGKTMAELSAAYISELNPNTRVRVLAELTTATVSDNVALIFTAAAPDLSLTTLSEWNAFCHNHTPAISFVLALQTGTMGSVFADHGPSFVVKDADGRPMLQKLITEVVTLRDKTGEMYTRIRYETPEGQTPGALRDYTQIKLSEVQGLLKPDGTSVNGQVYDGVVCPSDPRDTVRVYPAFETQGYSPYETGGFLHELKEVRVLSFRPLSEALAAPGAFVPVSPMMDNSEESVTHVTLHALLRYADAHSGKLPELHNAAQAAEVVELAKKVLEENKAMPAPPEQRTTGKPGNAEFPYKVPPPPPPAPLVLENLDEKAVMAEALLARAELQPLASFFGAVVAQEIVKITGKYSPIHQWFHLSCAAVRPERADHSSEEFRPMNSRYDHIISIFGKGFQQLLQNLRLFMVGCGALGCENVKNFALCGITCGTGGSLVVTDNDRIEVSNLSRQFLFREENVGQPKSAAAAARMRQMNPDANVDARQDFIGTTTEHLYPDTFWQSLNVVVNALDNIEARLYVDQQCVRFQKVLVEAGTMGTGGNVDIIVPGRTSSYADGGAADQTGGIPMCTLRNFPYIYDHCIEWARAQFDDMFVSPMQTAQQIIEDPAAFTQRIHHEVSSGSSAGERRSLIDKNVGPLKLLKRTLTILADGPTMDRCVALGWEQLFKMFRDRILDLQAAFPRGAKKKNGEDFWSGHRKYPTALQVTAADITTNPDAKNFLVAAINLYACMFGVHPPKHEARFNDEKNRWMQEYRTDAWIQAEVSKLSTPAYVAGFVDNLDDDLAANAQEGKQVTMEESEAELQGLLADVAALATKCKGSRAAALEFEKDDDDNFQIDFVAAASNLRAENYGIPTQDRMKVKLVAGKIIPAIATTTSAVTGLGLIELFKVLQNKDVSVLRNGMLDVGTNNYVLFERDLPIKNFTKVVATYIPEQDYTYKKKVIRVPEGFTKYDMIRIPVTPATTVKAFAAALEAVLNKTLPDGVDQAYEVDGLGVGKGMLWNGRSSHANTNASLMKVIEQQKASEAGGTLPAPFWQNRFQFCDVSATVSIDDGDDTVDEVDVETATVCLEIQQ

[6] = molecular target: T4, Shiga toxin 2 (Escherichia coli O157:H7, UniProt P09385+P09386); experiment: E. coli 0.157:H7 Shiga Toxin SOP - stx2 screening assay
T4 sequence (P09385 whole entry): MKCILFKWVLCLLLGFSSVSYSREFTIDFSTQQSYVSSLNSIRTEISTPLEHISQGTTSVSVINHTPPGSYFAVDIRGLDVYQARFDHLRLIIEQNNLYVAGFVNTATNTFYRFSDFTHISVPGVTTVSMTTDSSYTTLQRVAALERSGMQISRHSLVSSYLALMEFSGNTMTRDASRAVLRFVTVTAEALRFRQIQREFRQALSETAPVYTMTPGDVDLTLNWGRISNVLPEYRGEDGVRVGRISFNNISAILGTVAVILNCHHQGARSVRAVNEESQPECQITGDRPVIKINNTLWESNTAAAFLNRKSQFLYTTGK
T4 sequence (P09386 whole entry): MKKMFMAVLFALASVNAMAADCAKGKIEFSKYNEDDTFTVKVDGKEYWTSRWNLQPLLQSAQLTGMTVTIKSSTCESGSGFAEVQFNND

[7] = molecular target: ClpP1P2 (Mycobacterium tuberculosis (strain ATCC 25618 / H37Rv), UniProt P9WPC3+P9WPC5); experiment: in vitro assay to detect presence of AMC directly proportional to the activity of ClpP1P2. GHDDI collaboration.
ClpP1P2, sequence (P9WPC5 whole entry): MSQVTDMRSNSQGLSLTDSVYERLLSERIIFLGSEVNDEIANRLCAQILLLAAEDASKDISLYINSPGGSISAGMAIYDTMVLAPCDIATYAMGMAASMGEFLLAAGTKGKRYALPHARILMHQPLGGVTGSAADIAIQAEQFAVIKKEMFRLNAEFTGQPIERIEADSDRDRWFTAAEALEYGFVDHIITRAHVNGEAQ
ClpP1P2, sequence (P9WPC3 whole entry): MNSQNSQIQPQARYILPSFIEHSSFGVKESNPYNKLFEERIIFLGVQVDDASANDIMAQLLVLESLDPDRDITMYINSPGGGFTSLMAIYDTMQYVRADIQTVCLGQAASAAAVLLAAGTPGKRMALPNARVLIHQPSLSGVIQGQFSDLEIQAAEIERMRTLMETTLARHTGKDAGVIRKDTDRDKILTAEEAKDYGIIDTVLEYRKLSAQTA

Structure (SMILES) | IC50 [1] | IC50 [2] [µM] | IC50 [3] | IC50 [4] | IC50 [5] | IC50 [6] | IC50 [7] [µM]
COc1cccc(C2CC(=O)Nc3nc(N4CCOCC4)sc32)c1OC (configuration not stated) | 1200 nM and 876 nM | > 50.1 | 10.6 µM and 8.05 µM | 5.22 µM and 4.5 µM | 85.8 µM and 91 µM | – | –
CNc1nc2c(s1)C(c1cccc(Cl)c1Cl)CC(=O)N2 (configuration not stated) | – | > 50.1 | 37.8 µM and > 100 µM | 10.4 µM and 11.2 µM | – | – | –
Cn1cc(C(=O)N2CCC(Cc3nccs3)CC2)cn1 | – | – | – | – | – | > 100 µM | –
Cc1cc(-c2cnn(CCNC(=O)C3CC3)c2C2CC2)on1 | – | – | – | – | – | > 100 µM | –
CCc1c(C(=O)NCC2CCS(=O)(=O)C2)cnn1-c1ccc(C)cc1 (configuration not stated) | – | – | > 100 µM | – | – | – | –
CC(C)(C)NC(=O)NC(=O)CNC(C)(C)c1ccc2c(c1)OCCO2 | – | – | – | – | – | > 100 µM | –
CNc1nc2c(s1)C(c1ccc(Cl)cc1Cl)CC(=O)N2 (configuration not stated) | 4560 nM and 3650 nM | > 50.1 | > 100 µM | 10.3 µM and 10.6 µM | – | – | –
COc1cccc(C2CC(=O)Nc3nc(N4CCCCC4)sc32)c1OC (configuration not stated) | 423 nM and 346 nM | > 50.1 | 22.7 µM and 22.6 µM | 2.42 µM and 4.13 µM | 81.5 µM and 75 µM | – | > 100
COc1c(CNC(c2ccc(F)cc2)C(C)(C)C)c(C)nn1C (configuration not stated) | – | – | – | – | – | > 100 µM | –
COc1ccc(OC)c(C2CC(=O)Nc3nc(N4CCOCC4)sc32)c1 (configuration not stated) | 373 nM and 317 nM | > 50.1 | > 100 µM and 34.1 µM | 3.5 µM and 4.23 µM | > 100 µM | – | > 100
O=C1CN(Cc2ccc(-c3ccccc3C(=O)O)cc2)CCN1 | – | – | – | – | – | > 100 µM | –
CC(C)Oc1ccccc1C1CC(=O)Nc2nc(N3CCOCC3)sc21 (configuration not stated) | – | > 50.1 | 41.6 µM and 34.6 µM | 3.93 µM and 5.46 µM | 86.4 µM and 89.7 µM | – | > 100
COc1ccc(C2CC(=O)Nc3nc(N4CCOCC4)sc32)cc1 (configuration not stated) | 1790 nM and 2450 nM and 2490 nM and 2070 nM | > 50.1 | 37.3 µM and > 100 µM | 10.8 µM and 8.7 µM | > 100 µM | – | > 100
CCCc1c(C(=O)NC2CCCC2)nnn1-c1ccc(OC)cc1 | – | – | > 100 µM | – | – | – | –
Nc1nc2c(s1)C(c1c(F)cccc1Cl)CC(=O)N2 (configuration not stated) | 3220 nM and 4420 nM | > 50.1 | > 100 µM | 9.65 µM and 7.68 µM | – | – | –
CC1(C)OCC(CNC(=O)c2cnn(-c3cc(Cl)ccc3Cl)c2N)O1 (configuration not stated) | – | – | > 100 µM | – | – | – | –
COc1ccccc1CC(=O)N1CC[C@@]2(CCCO2)[C@@H](OC)C1 | – | – | – | – | – | > 100 µM | –
COCCN1CCN(CCS(=O)(=O)C(F)(F)F)CC1C (configuration not stated) | – | – | – | – | – | 32.8 µM and 33 µM | –
COc1ccc(-n2ncc(C(=O)NCC3COC(C)(C)O3)c2N)cc1 (configuration not stated) | – | – | > 100 µM | – | – | – | –
CN(Cc1ccsc1)C(=O)CS(=O)(=O)Cc1ccc(Cl)c(Cl)c1 | – | – | – | – | – | > 100 µM | –
Cc1nc(C(=O)N2CCC(Cc3cnc4[nH]ccc4c3)C2)co1 (configuration not stated) | – | – | – | – | – | > 100 µM | –
CNc1nc2c(s1)C(c1c(Cl)cccc1Cl)CC(=O)N2 (configuration not stated) | 20800 nM and 17500 nM | > 50.1 | 89.4 µM and 43.2 µM | 21.3 µM and 23 µM | – | – | –
O=C(Cc1cccc(Cl)c1)N[C@@H]1CCNC[C@H]1O | – | – | – | – | – | > 100 µM and 21.3 µM | –
O=C1CC(c2ccccc2Br)c2sc(N3CCOCC3)nc2N1 (configuration not stated) | 1130 nM and 1440 nM | > 50.1 | > 100 µM | 6.96 µM and 6.21 µM | > 100 µM and 92.2 µM | – | –
